From patent US3960863A, “Pyrido[1,2-a]pyrimidinone derivatives” (Sankyo Company Limited, priority 1974, dated 1976)

system: Thiopental-induced Anesthesia; experiment: Potentiating effect of thiopental-induced anesthesia (anesthesia-potentiating effect); format: in vivo, mouse; settings: 0.5 h; mouse, oral; sodium thiopental 30 mg/kg i.v. after 30 minutes; ED50 = dose doubling duration of loss of righting reflex vs control; Litchfield-Wilcoxon; 95% confidence limits in parentheses; read-out: Potentiating Effect of Thiopental-induced Anesthesia ED50
Description: The pharmacological test was performed in the manner that to a mouse having the body weight of about 25 g was orally administered and, after 30 minutes, given through the vein sodium thiopental in an amount of 30 mg per 1 kg of the body weight, and then the duration time of loss of righting reflux was detected. In the above Table, the value is expressed in ED50 value, by which the duration time of loss of righting reflex is prolonged twice as long as that of the control having been given with thiopental only.

In order of falling ED50:
1. Cc1ccn2c(=O)c(CCN3CCN(c4ccc(Cl)cc4)CC3)c(C)nc2c1 [3-[2-(4-p-Chlorophenyl-1-piperazinyl)ethyl]-2,8-dimethyl-4H-pyrido[1,2-a]pyrimidin-4-one]  2.9 mg/kg
2. Cc1ccc(N2CCN(CCc3c(C)nc4c(C)cccn4c3=O)CC2)cc1 [3-[2-(4-p-Tolyl-1-piperazinyl)ethyl]-2,9-dimethyl-4H-pyrido[1,2-a]pyrimidin-4-one]  1.8 mg/kg
3. Cc1cccc(N2CCN(CCc3c(C)nc4cc(C)cc(C)n4c3=O)CC2)c1 [3-[2-(4-m-tolyl-1-piperazinyl)ethyl]-2,6,8-trimethyl-4H-pyrido[1,2-a]pyrimidin-4-one]  1.7 mg/kg
4. Cc1cccc(N2CCN(CCc3c(C)nc4c(C)cccn4c3=O)CC2)c1 [3-[2-(4-m-Tolyl-1-piperazinyl)ethyl]-2,9-dimethyl-4H-pyrido[1,2-a]pyrimidin-4-one]  1.25 mg/kg
5. Cc1ccn2c(=O)c(CCN3CCN(c4cccc(Cl)c4)CC3)c(C)nc2c1 [3-[2-(4-m-Chlorophenyl-1-piperazinyl)ethyl]-2,8-dimethyl-4H-pyrido[1,2-a]pyrimidin-4-one]  0.92 mg/kg
6. Cc1cccc(N2CCN(CCc3c(C)nc4cc(C)ccn4c3=O)CC2)c1 [3-[2-(4-m-tolyl-1-piperazinyl)ethyl]-2,8-dimethyl-4H-pyrido[1,2-a]pyrimidin-4-one]  0.8 mg/kg
7. COc1cccc(N2CCN(CCc3c(C)nc4cc(C)ccn4c3=O)CC2)c1 [3-[2-(4-m-Methoxyphenyl-1-piperazinyl)ethyl]-2,8-dimethyl-4H-pyrido[1,2-a]pyrimidin-4-one]  0.7 mg/kg

same assay, conditions: Mus musculus, po, 0.5 h, read-out: Potentiating Effect of Thiopental-induced Anesthesia ED50

Work on `CN(C)CCCN1c2ccccc2Sc2ccc(Cl)cc21` [chlorpromazine, reference compound] yielded an ED50 of 3.5 mg/kg.

system: not listed separately; experiment: Acute toxicity in mouse (LD50); settings: in vivo, ip, 95% confidence limits in parentheses where given, read-out: Acute Toxicity in mouse LD50 (i.p.)

`Cc1ccn2c(=O)c(CCN3CCN(c4cccc(Cl)c4)CC3)c(C)nc2c1` [3-[2-(4-m-Chlorophenyl-1-piperazinyl)ethyl]-2,8-dimethyl-4H-pyrido[1,2-a]pyrimidin-4-one] and `Cc1cccc(N2CCN(CCc3c(C)nc4cc(C)ccn4c3=O)CC2)c1` [3-[2-(4-m-tolyl-1-piperazinyl)ethyl]-2,8-dimethyl-4H-pyrido[1,2-a]pyrimidin-4-one] fall in the same range of LD50: 100 to 300 mg/kg for the first, 100 to 300 mg/kg for the second.

`COc1cccc(N2CCN(CCc3c(C)nc4cc(C)ccn4c3=O)CC2)c1` [3-[2-(4-m-Methoxyphenyl-1-piperazinyl)ethyl]-2,8-dimethyl-4H-pyrido[1,2-a]pyrimidin-4-one] and `Cc1ccn2c(=O)c(CCN3CCN(c4ccc(Cl)cc4)CC3)c(C)nc2c1` [3-[2-(4-p-Chlorophenyl-1-piperazinyl)ethyl]-2,8-dimethyl-4H-pyrido[1,2-a]pyrimidin-4-one] fall in the same range of LD50: 100 to 300 mg/kg for the first, 100 to 300 mg/kg for the second.

`Cc1cccc(N2CCN(CCc3c(C)nc4c(C)cccn4c3=O)CC2)c1` [3-[2-(4-m-Tolyl-1-piperazinyl)ethyl]-2,9-dimethyl-4H-pyrido[1,2-a]pyrimidin-4-one] and `Cc1ccc(N2CCN(CCc3c(C)nc4c(C)cccn4c3=O)CC2)cc1` [3-[2-(4-p-Tolyl-1-piperazinyl)ethyl]-2,9-dimethyl-4H-pyrido[1,2-a]pyrimidin-4-one] fall in the same range of LD50: 100 to 300 mg/kg for the first, 100 to 300 mg/kg for the second.

`Cc1cccc(N2CCN(CCc3c(C)nc4cc(C)cc(C)n4c3=O)CC2)c1` [3-[2-(4-m-tolyl-1-piperazinyl)ethyl]-2,6,8-trimethyl-4H-pyrido[1,2-a]pyrimidin-4-one] and `CN(C)CCCN1c2ccccc2Sc2ccc(Cl)cc21` [chlorpromazine, reference compound] cannot be ordered by LD50: 100 to 300 mg/kg for the first, 105 mg/kg for the second.

same assay, conditions: in vivo, po, 95% confidence limits in parentheses, read-out: Acute Toxicity in mouse LD50 (p.o.)

In order of falling LD50:
1. Cc1ccn2c(=O)c(CCN3CCN(c4cccc(Cl)c4)CC3)c(C)nc2c1 [3-[2-(4-m-Chlorophenyl-1-piperazinyl)ethyl]-2,8-dimethyl-4H-pyrido[1,2-a]pyrimidin-4-one]  635 mg/kg
2. Cc1cccc(N2CCN(CCc3c(C)nc4cc(C)ccn4c3=O)CC2)c1 [3-[2-(4-m-tolyl-1-piperazinyl)ethyl]-2,8-dimethyl-4H-pyrido[1,2-a]pyrimidin-4-one]  480 mg/kg
3. CN(C)CCCN1c2ccccc2Sc2ccc(Cl)cc21 [chlorpromazine, reference compound]  245 mg/kg
